From patent EP0600782A1, “C-11 modified pradimicin derivatives” (priority 1992, dated 1994)
In brackets after ≈: the same amount, converted by molar mass.

Legend:
Strain AA 3798 = assay: Antibiotic susceptibility of the producing strain, antibiotic disks; assay type: cell-based, unidentified actinomycete; settings: yeast-glucose-malt agar, 37°C, 4 days
Experimental: Antibiotic susceptibility of strain AA 3798 was examined using antibiotic disks (Tridisk, Eiken Chemical Co., Ltd). The disks were placed onto the surface of yeast-glucose-malt agar (yeast extract 0.1%, glucose 1%, malt extract 0.1%, CaCl₂·2H₂O 0.05%, and agar 1.5%) which had been seeded by strain AA 3798 (4% inoculum), and the plates were then incubated at 37°C for 4 days.

[1] = test system: Cryptococcus neoformans IAM4514; assay: In vitro antifungal activity (MIC), agar dilution on yeast morphology agar; assay type: cell-based; settings: YMA, 0.06M phosphate (pH 7.0), 28°C, 40 hours, read-out: MIC Cn-2
Experimental: (§1) The in vitro antifungal activity (MIC) of the compounds of the invention was determined on yeast morphology agar (YMA, Difco Laboratories, USA), buffered with 0.06M phosphate (pH 7.0). Nine parts of molten agar were combined with one part of antibiotic dilution in petri dishes. A 5-µl suspension containing 2x10⁶ cells/ml was spotted on the surface of the agar plates. The plates were incubated at 28°C and MICs were recorded after 40 hours of the incubation. All of the 11-hydroxy derivatives of Formula I-I are active against a wide range of fungi.

Candida albicans A9540 = assay: as above; assay type: cell-based; settings: YMA, 0.06M phosphate (pH 7.0), 28°C, 40 hours, read-out: MIC Ca-4
Experimental: as §1

[2] = test system: Candida tropicalis IFO10241; assay: as above; assay type: cell-based; settings: YMA, 0.06M phosphate (pH 7.0), 28°C, 40 hours, read-out: MIC Ct-12
Experimental: as §1

Row | Compound | MIC [1] | MIC (Candida albicans A9540) | MIC [2] | further results
1 | NC[C@H]1O[C@H](O[C@H]2[C@H](O)[C@@H](O[C@H]3O[C@H](CO)[C@@H](O)[C@H](N)[C@H]3O)[C@H](N)C[C@@H]2N)[C@H](N)C[C@@H]1O [tobramycin] | – | – | – | Antibiotic susceptibility of strain AA 3798 (Strain AA 3798; disk 10 µg): resistance
2 | CC1(C)S[C@@H]2[C@H](NC(=O)[C@H](N)c3ccccc3)C(=O)N2[C@H]1C(=O)O [ampicillin] | – | – | – | Antibiotic susceptibility of strain AA 3798 (Strain AA 3798; disk 20 µg): resistance
3 | CCn1cc(C(=O)O)c(=O)c2ccc(C)nc21 [nalidixic acid] | – | – | – | Antibiotic susceptibility of strain AA 3798 (Strain AA 3798; disk 15 µg): resistance
4 | CC1=C(C(=O)O)N2C(=O)[C@@H](NC(=O)[C@H](N)c3ccccc3)[C@H]2SC1 [cephalexin] | – | – | – | Antibiotic susceptibility of strain AA 3798 (Strain AA 3798; disk 10 µg): resistance
5 | C[C@@H]1O[C@@H]1P(=O)(O)O [fosfomycin] | – | – | – | Antibiotic susceptibility of strain AA 3798 (Strain AA 3798; disk 50 µg): resistance
6 | CCn1cc(C(=O)O)c(=O)c2cc(F)c(N3CCNCC3)cc21 [norfloxacin] | – | – | – | Antibiotic susceptibility of strain AA 3798 (Strain AA 3798; disk 2 µg): susceptible
7 | CC[C@H]1OC(=O)[C@H](C)[C@@H](O[C@H]2C[C@@](C)(OC)[C@@H](O)[C@H](C)O2)[C@H](C)[C@@H](O[C@@H]2O[C@H](C)C[C@H](N(C)C)[C@H]2O)[C@](C)(O)C[C@@H](C)C(=O)[C@H](C)[C@@H](O)[C@]1(C)O [erythromycin] | – | – | – | Antibiotic susceptibility of strain AA 3798 (Strain AA 3798; disk 10 µg): resistance
8 | CCC[C@@H]1C[C@@H](C(=O)N[C@@H]([C@H]2O[C@H](SC)[C@H](O)[C@@H](O)[C@H]2O)[C@@H](C)O)N(C)C1 [lincomycin] | – | – | – | Antibiotic susceptibility of strain AA 3798 (Strain AA 3798; disk 15 µg): resistance
9 | O=C(N[C@H](CO)[C@H](O)c1ccc([N+](=O)[O-])cc1)C(Cl)Cl [chloramphenicol] | – | – | – | Antibiotic susceptibility of strain AA 3798 (Strain AA 3798; disk 10 µg): susceptible
10 | CO[C@@H]1[C@@H](O[C@@H]2O[C@H](C)[C@@H](O[C@H]3C[C@@](C)(O)[C@@H](OC(=O)CC(C)C)[C@H](C)O3)[C@H](N(C)C)[C@H]2O)[C@@H](CC=O)C[C@@H](C)[C@@H](O)/C=C/C=C/C[C@@H](C)OC(=O)C[C@H]1OC(C)=O [josamycin] | – | – | – | Antibiotic susceptibility of strain AA 3798 (Strain AA 3798; disk 15 µg): resistance
11 | O=C(O)[C@H]1/C(=C/CO)O[C@@H]2CC(=O)N21 [clavulanic acid] | – | – | – | Antibiotic susceptibility of strain AA 3798 (Strain AA 3798; disk 1 µg): susceptible
12 | CC1(C)S[C@@H]2[C@H](NC(=O)[C@H](C(=O)O)c3ccsc3)C(=O)N2[C@H]1C(=O)O [ticarcillin] | – | – | – | Antibiotic susceptibility of strain AA 3798 (Strain AA 3798; disk 2 µg): susceptible
13 | gentamicin | – | – | – | Antibiotic susceptibility of strain AA 3798 (Strain AA 3798; disk 5 µg): resistance
14 | polymyxin B | – | – | – | Antibiotic susceptibility of strain AA 3798 (Strain AA 3798; disk 300 U): resistance
15 | colistin | – | – | – | Antibiotic susceptibility of strain AA 3798 (Strain AA 3798; disk 50 U): susceptible

Second part, led by results:

Row | MIC [1] | MIC (Candida albicans A9540) | MIC [2] | Compound | further results
16 | 1.6 µg/mL (≈ 1.93 µM) | 3.1 µg/mL (≈ 3.75 µM) | 12.5 µg/mL (≈ 15.1 µM) | CCOc1cc(O)c2c(c1)C(=O)c1c(cc3c(c1O)-c1c(cc(C)c(C(=O)NCC(=O)O)c1O)[C@H](O[C@@H]1O[C@H](C)[C@H](O)[C@H](O[C@@H]4OC[C@@H](O)[C@H](O)[C@H]4O)[C@H]1O)[C@H]3O)C2=O [IIA, 11-O-Dexylosyl-11-O-ethylpradimicin T1] | –
17 | 6.3 µg/mL (≈ 7.79 µM) | 12.5 µg/mL (≈ 15.5 µM) | 25 µg/mL (≈ 30.9 µM) | Cc1cc2c(c(O)c1C(=O)NCC(=O)O)-c1c(cc3c(c1O)C(=O)c1cc(C#N)cc(O)c1C3=O)[C@H](O)[C@H]2O[C@@H]1O[C@H](C)[C@H](O)[C@H](O[C@@H]2OC[C@@H](O)[C@H](O)[C@H]2O)[C@H]1O [IIL, 11-Cyano-11-dexylosyloxy pradimicin T1] | –
18 | 1.6 µg/mL (≈ 1.89 µM) | 3.1 µg/mL (≈ 3.67 µM) | 6.3 µg/mL (≈ 7.45 µM) | Cc1cc2c(c(O)c1C(=O)NCC(=O)O)-c1c(cc3c(c1O)C(=O)c1cc(OCCF)cc(O)c1C3=O)[C@H](O)[C@H]2O[C@@H]1O[C@H](C)[C@H](O)[C@H](O[C@@H]2OC[C@@H](O)[C@H](O)[C@H]2O)[C@H]1O [IIB, 11-O-Dexylosyl-11-O-(2-fluoroethyl)pradimicin T1] | –
19 | 1.6 µg/mL (≈ 1.9 µM) | 6.3 µg/mL (≈ 7.49 µM) | 12.5 µg/mL (≈ 14.9 µM) | CN[C@@H]1[C@H](O[C@@H]2OC[C@@H](O)[C@H](O)[C@H]2O)[C@@H](O)[C@H](O[C@H]2c3cc(C)c(C(=O)N[C@H](C)C(=O)O)c(O)c3-c3c(cc4c(c3O)C(=O)c3cc(OC)cc(O)c3C4=O)[C@@H]2O)O[C@@H]1C [Pradimicin A, reference compound] | –
20 | 3.1 µg/mL (≈ 3.75 µM) | 6.3 µg/mL (≈ 7.62 µM) | 25 µg/mL (≈ 30.2 µM) | CNC1C(C)OC(OC2c3cc(C)c(C(=O)NC(C)C(=O)O)c(O)c3-c3c(cc4c(c3O)C(=O)c3cc(O)cc(O)c3C4=O)C2O)C(O)C1OC1OCC(O)C(O)C1O (stereo not drawn) [Compound IA, 11-O-Demethylpradimicin A] | –
21 | 6.3 µg/mL (≈ 7.62 µM) | 12.5 µg/mL (≈ 15.1 µM) | 25 µg/mL (≈ 30.2 µM) | Cc1cc2c(c(O)c1C(=O)NCC(=O)O)-c1c(cc3c(c1O)C(=O)c1cc(C(N)=O)cc(O)c1C3=O)[C@H](O)[C@H]2O[C@@H]1O[C@H](C)[C@H](O)[C@H](O[C@@H]2OC[C@@H](O)[C@H](O)[C@H]2O)[C@H]1O [IIK, 11-Carbamoyl-11-dexylosyloxy pradimicin T1] | –
22 | 12.5 µg/mL (≈ 15.1 µM) | 6.3 µg/mL (≈ 7.59 µM) | 12.5 µg/mL (≈ 15.1 µM) | Cc1cc2c(c(O)c1C(=O)NC(CO)C(=O)O)-c1c(cc3c(c1O)C(=O)c1cc(O)cc(O)c1C3=O)C(O)C2OC1OC(C)C(O)C(OC2OCC(O)C(O)C2O)C1O (stereo not drawn) [IF, 11-O-Demethyl-BMS-181184] | –
23 | 50 µg/mL (≈ 60.5 µM) | 12.5 µg/mL (≈ 15.1 µM) | > 100 µg/mL | Cc1cc2c(c(O)c1C(=O)NCC(=O)O)-c1c(cc3c(c1O)C(=O)c1cc(N(C)C)cc(O)c1C3=O)[C@H](O)[C@H]2O[C@@H]1O[C@H](C)[C@H](O)[C@H](O[C@@H]2OC[C@@H](O)[C@H](O)[C@H]2O)[C@H]1O [IIJ, 11-Dexylosyloxy-11-dimethylaminopradimicin T1] | –
24 | 3.1 µg/mL (≈ 3.68 µM) | 6.3 µg/mL (≈ 7.48 µM) | 12.5 µg/mL (≈ 14.8 µM) | CNC1C(C)OC(OC2c3cc(C)c(C(=O)NC(CO)C(=O)O)c(O)c3-c3c(cc4c(c3O)C(=O)c3cc(O)cc(O)c3C4=O)C2O)C(O)C1OC1OCC(O)C(O)C1O (stereo not drawn) [ID, 11-O-Demethylpradimicin FA-1] | –
25 | 6.3 µg/mL (≈ 8.04 µM) | 6.3 µg/mL (≈ 8.04 µM) | 12.5 µg/mL (≈ 16 µM) | Cc1cc2c(c(O)c1C(=O)NCC(=O)O)-c1c(cc3c(c1O)C(=O)c1cccc(O)c1C3=O)[C@H](O)[C@H]2O[C@@H]1O[C@H](C)[C@H](O)[C@H](O[C@@H]2OC[C@@H](O)[C@H](O)[C@H]2O)[C@H]1O [III, 11-Dexylosyloxypradimicin T1] | –
26 | 12.5 µg/mL (≈ 14 µM) | > 100 µg/mL | > 100 µg/mL | Cc1cc2c(c(O)c1C(=O)NCC(=O)O)-c1c(cc3c(c1O)C(=O)c1cc(OCc4ccccc4)cc(O)c1C3=O)[C@H](O)[C@H]2O[C@@H]1O[C@H](C)[C@H](O)[C@H](O[C@@H]2OC[C@@H](O)[C@H](O)[C@H]2O)[C@H]1O [IID, 11-O-Benzyl-11-O-dexylosylpradimicin T1] | –
27 | 6.3 µg/mL (≈ 7.35 µM) | 6.3 µg/mL (≈ 7.35 µM) | 25 µg/mL (≈ 29.2 µM) | Cc1cc2c(c(O)c1C(=O)NC(CO)C(=O)O)-c1c(cc3c(c1O)C(=O)c1cc(O)cc(O)c1C3=O)C(O)C2OC1OC(C)C(N(C)C)C(OC2OCC(O)C(O)C2O)C1O (stereo not drawn) [IE, 11-O-Demethyl-BMS-181182] | –
28 | 1.6 µg/mL (≈ 1.97 µM) | 6.3 µg/mL (≈ 7.77 µM) | 12.5 µg/mL (≈ 15.4 µM) | CNC1C(C)OC(OC2c3cc(C)c(C(=O)NC(C)C(=O)O)c(O)c3-c3c(cc4c(c3O)C(=O)c3cccc(O)c3C4=O)C2O)C(O)C1OC1OCC(O)C(O)C1O (stereo not drawn) [IIG, 11-Demethoxypradimicin A] | –
29 | 1.6 µg/mL (≈ 1.97 µM) | 6.3 µg/mL (≈ 7.75 µM) | 12.5 µg/mL (≈ 15.4 µM) | Cc1cc2c(c(O)c1C(=O)NC(C)C(=O)O)-c1c(cc3c(c1O)C(=O)c1cc(O)cc(O)c1C3=O)C(O)C2OC1OC(C)C(N)C(OC2OCC(O)C(O)C2O)C1O (stereo not drawn) [IC, 11-O-Demethylpradimicin C] | –
30 | 3.1 µg/mL (≈ 3.69 µM) | 6.3 µg/mL (≈ 7.5 µM) | 12.5 µg/mL (≈ 14.9 µM) | C=CCOc1cc(O)c2c(c1)C(=O)c1c(cc3c(c1O)-c1c(cc(C)c(C(=O)NCC(=O)O)c1O)[C@H](O[C@@H]1O[C@H](C)[C@H](O)[C@H](O[C@@H]4OC[C@@H](O)[C@H](O)[C@H]4O)[C@H]1O)[C@H]3O)C2=O [IIC, 11-O-Allyl-11-O-dexylosylpradimicin T1] | –
